# Test system: intracellular S. aureus Newbould 305 in bovine mammary epithelial cell line (MAC-T)
# Test: Intracellular S. aureus eradication assay in MAC-T cells
# Format: cell-based
# Settings: 25 μg in 1 ml DMEM, 2.5 h
# Description: FIGS. 5a-5e depict peptidoglycan hydrolase-protein transduction domain (PGH-PTD) eradication of intracellular S. aureus in cultured cells. Cultured cells were infected, treated with gentamicin to kill extracellular S. aureus, and then treated with the peptidoglycan hydrolases indicated. All results are standardized to the gentamicin (GENT) only control. Nomenclature of the peptidoglycan hydrolase constructs is as in FIG. 1. Asterisks indicate statistical significance detected with single factor ANOVA (α=0.05) with paired t-test posthoc analyses α=0.05 adjusted with Sidák correction for multiple comparisons (for all cases p<0.01). […] Error bars represent SEM. […] Yellow staining in the combined panel represents intracellular co-localization (in a single plane as determined by z-stack analysis) of both S. aureus and K-L-PTD1 (blue arrow). […]
# Three similar intracellular S. aureus eradication assays from three different labs were optimized for (A) a cultured bovine mammary epithelial cell line (MAC-T, Nexia Biotechnologies, Quebec, Canada; Almeida, supra), (B) primary C57BL/6 mouse-derived osteoblasts (mOBs) (McCall et al. 2008. J. Bone Miner. Res. 23: 30-40) or (C) human brain microvascular endothelial cells (hBMEC; Stins, supra). […] The cell lysate was subjected to serial dilution plating, and the resultant CFUs were counted and normalized to the gentamicin control for each assay. […]
substance,measurement,value
"K-L: both LysK lytic domains fused to the N-terminus of lysostaphin; SEQ ID NO:5, protein SEQ ID NO:6",intracellular S. aureus CFUs relative to gentamicin only control,reduced the intracellular bacteria recovered
